How the values were obtained:
[1] = molecular target: T1, human recombinant C-terminal His-tagged LDHA (Homo sapiens (Human), UniProt P00338); experiment: Human LDHA enzyme assay; format: biochemical; settings: 50 μM pyruvate, 50 μM NADH, 1% DMSO
Description: Biochemical assays include recombinant human LDH enzymatic assays in which purified recombinant human lactate dehydrogenase A (LDHA) is incubated with test compound, substrate pyruvate and coenzyme […], and its enzymatic activity measured by the formation of NAD upon conversion of pyruvate to lactate.
(§1) Compounds were dissolved in DMSO and preincubated with human recombinant C-terminal His-tagged LDHA (0.070 μg/mL) for 10 min at room temperature in assay buffer consisting of 50 mM Tris (pH 7.5) and 100 mM NaCl in black walled, clear bottom, non-binding 96-well plates. Equal volumes of substrate solution containing 100 μM of pyruvate and 100 μM of NADH in assay buffer was added to each well (final concentration 0.035 μg/mL enzyme, 50 μM pyruvate, 50 μM NADH, and 1% DMSO). For human serum albumin (HSA) shift assay, the compounds were preincubated with the enzyme in assay buffer containing 20% HSA before substrate addition (final concentration 10% HSA). The reaction was monitored at 340 nm on a plate reader (Molecular Devices) in kinetic mode for 15 min. The rate of the reaction was determined by plotting absorbance vs time.

[2] = Liver-targeted tissue distribution profile study in rats; format: in vivo, rat; settings: PO 10 mg/kg, SD rats
Description: Plasma and liver (target organ) concentrations of test compounds were determined in rats following a single per os (PO) administration of the test compounds. Male Sprague Dawley rats (6-8 weeks of age, Charles River Labs) were fasted overnight and a single dose of test compounds (10 mg/kg; as a suspension in 0.5% methyl cellulose) was administered by PO gavage. Rats were then sacrificed at 4 and 24 h after administration of the test compounds, and plasma and liver tissue samples were collected. Liver tissue samples were homogenized in 5 volumes of water:acetonitrile (50/50; v/v) mixture using a bead mill homogenizer. Plasma and liver homogenate samples were processed by protein precipitation using acetonitrile and the concentrations of the test compounds were determined by liquid chromatography-tandem mass spectrometry (SciEx triple quad 5500+ with Exion UPLC).

[3] = molecular target: T1, human recombinant C-terminal His-tagged LDHA; experiment: Human LDHA enzyme assay, human serum albumin (HSA) shift assay; format: biochemical; settings: final concentration 10% HSA
Description: as §1

[4] = test system: primary mouse hepatocytes; experiment: Primary mouse hepatocyte assay (lactate production); format: cell-based; settings: wild type C57BL/6 hepatocytes, in presence of pyruvate
Description: LDH inhibitors can also be evaluated in an ex vivo assay consisting of primary mouse hepatocytes. Following isolation, viable wild-type murine hepatocytes are incubated with test compound in presence of pyruvate. Compound potency to modulate LDH enzymatic activity is then evaluated by measuring the conversion of pyruvate to lactate by the cells.
Compounds were evaluated in an ex vivo assay consisting of fresh primary mouse hepatocytes. Hepatocytes were isolated from wild type mice (C57BL/6NCrl from Charles River Labs) using a two-step collagenase perfusion technique which involves a sequential perfusion of anesthetized mice with Hanks' balanced salt solution and collagenase. Following isolation, viable wild type hepatocytes are incubated with test compound in presence of pyruvate and compound potency is evaluated by measuring the lactate produced by the cells using liquid chromatography coupled to mass spectrometry. Chromatographic separation was achieved on an XDB-C18 4.6×50 mm column (Agilent, Cat #927975-902) at a flow rate of 1 mL/min. Mobile phase A consisted of 0.1% formic acid in water and mobile phase B consisted of acetonitrile. A gradient program was initiated starting at 5% B which was held for 1 minutes, then ramped from 5% to 95% B over 1 minute. After holding at 95% B for 1 minute, the program changed back to 5% B. The column was equilibrated with 5% B for 1.5 minutes before the next injection. The mass spectrometer was operated in negative mode with electrospray ionization. The following transition along with their collision energy (CE) were used: 89→43 (CE: −16 V) for lactate and 92→45 (CE: −16 V) for ^13C3-Lactate (internal standard).

[5] = PH1 patients; cited from earlier work

Row | SMILES | IC50 [1] [nM] | Measured Compound Concentration Liver-4 h [2] | Measured Compound Concentration Liver-24 h [2] | Measured Compound Concentration Plasma-4 h [2] | Measured Compound Concentration Plasma-24 h [2] | IC50 [3] [nM] | IC50 [4] [nM] | lowering urinary oxalate [5]
1 | NS(=O)(=O)c1ccc(Cc2c(-c3ccc(F)c(C#CC4(O)COC4)c3)nn(-c3nc(C(=O)O)cs3)c2CC2CC2)cc1F [Example 1, 2-(5-(Cyclopropylmethyl)-3-(4-fluoro-3-((3-hydroxyoxetan-3-yl)ethynyl)phenyl)-4-(3-fluoro-4-sulfamoylbenzyl)-1H-pyrazol-1-yl)thiazole-4-carboxylic acid] | < 1 | +++ (5 μM≥+++>1 μM) | ++ (1 μM≥++>0.25 μM) | + (0.25 μM≥+>0 μM) | + (0.25 μM≥+>0 μM) | 1 to 10 | < 100 | –
2 | CC(C)(O)C#Cc1cc(-c2nn(-c3nc(C(=O)O)cs3)c(CC3CC3)c2Cc2ccc(S(N)(=O)=O)c(F)c2)ccc1F [Example 2, 2-(5-(Cyclopropylmethyl)-3-(4-fluoro-3-(3-hydroxy-3-methylbut-1-yn-1-yl)phenyl)-4-(3-fluoro-4-sulfamoylbenzyl)-1H-pyrazol-1-yl)thiazole-4-carboxylic acid] | < 1 | +++ (5 μM≥+++>1 μM) | +++ (5 μM≥+++>1 μM) | + (0.25 μM≥+>0 μM) | + (0.25 μM≥+>0 μM) | < 1 | < 100 | –
3 | CC1(C#Cc2cc(-c3nn(-c4nc(C(=O)O)cs4)c(CC4CC4)c3Cc3ccc(S(N)(=O)=O)c(F)c3)ccc2F)COC1 [Example 3, 2-(5-(cyclopropylmethyl)-3-(4-fluoro-3-((3-methyloxetan-3-yl)ethynyl)phenyl)-4-(3-fluoro-4-sulfamoylbenzyl)-1H-pyrazol-1-yl)thiazole-4-carboxylic acid] | < 1 | – | – | – | – | 1 to 10 | < 100 | –
4 | NS(=O)(=O)c1ccc(Cc2c(-c3ccc(F)c(C#CC4CC4)c3)nn(-c3nc(C(=O)O)co3)c2CC2CC2)cc1F [Example 10, 2-(3-(3-(Cyclopropylethynyl)-4-fluorophenyl)-5-(cyclopropylmethyl)-4-(3-fluoro-4-sulfamoylbenzyl)-1H-pyrazol-1-yl)oxazole-4-carboxylic acid] | < 1 | – | – | – | – | 1 to 10 | < 100 | –
5 | Cc1ncc(CO)c(CO)c1O [Pyridoxine] | – | – | – | – | – | – | – | approximately 30%

The next lines start with results.

Row | IC50 [1] [nM] | Measured Compound Concentration Liver-4 h [2] | Measured Compound Concentration Liver-24 h [2] | Measured Compound Concentration Plasma-4 h [2] | Measured Compound Concentration Plasma-24 h [2] | IC50 [3] [nM] | SMILES | IC50 [4] [nM] | lowering urinary oxalate [5]
6 | < 1 | – | – | – | – | 1 to 10 | NS(=O)(=O)c1ccc(Cc2c(-c3ccc(F)c(C#CC4(O)CCC4)c3)nn(-c3nc(C(=O)O)cs3)c2CC2CC2)cc1F [Example 4, 2-(5-(cyclopropylmethyl)-3-(4-fluoro-3-((1-hydroxycyclobutyl)ethynyl)phenyl)-4-(3-fluoro-4-sulfamoylbenzyl)-1H-pyrazol-1-yl)thiazole-4-carboxylic acid] | < 100 | –
7 | < 1 | – | – | – | – | – | NS(=O)(=O)c1ccc(Cc2c(-c3ccc(F)c(C#CC4(O)CC4)c3)nn(-c3nc(C(=O)O)cs3)c2CC2CC2)cc1F [Example 5, 2-(5-(cyclopropylmethyl)-3-(4-fluoro-3-((1-hydroxycyclopropl)ethynyl)phenyl)-4-(3-fluoro-4-sulfamoylbenzyl)-1H-pyrazol-1-yl)thiazole-4-carboxylic acid] | – | –
8 | < 1 | ++++ (++++>5 μM) | +++ (5 μM≥+++>1 μM) | + (0.25 μM≥+>0 μM) | + (0.25 μM≥+>0 μM) | 1 to 10 | CC(C)(O)C#Cc1cccc(-c2nn(-c3nc(C(=O)O)cs3)c(CC3CC3)c2Cc2ccc(S(N)(=O)=O)c(F)c2)c1 [Example 6, 2-(5-(cyclopropylmethyl)-4-(3-fluoro-4-sulfamoylbenzyl)-3-(3-(3-hydroxy-3-methylbut-1-yn-1-yl)phenyl)-1H-pyrazol-1-yl)thiazole-4-carboxylic acid] | < 100 | –
9 | < 1 | ++++ (++++>5 μM) | +++ (5 μM≥+++>1 μM) | + (0.25 μM≥+>0 μM) | + (0.25 μM≥+>0 μM) | 1 to 10 | NS(=O)(=O)c1ccc(Cc2c(-c3cccc(C#CC4COC4)c3)nn(-c3nc(C(=O)O)cs3)c2CC2CC2)cc1F [Example 7, 2-(5-(cyclopropylmethyl)-4-(3-fluoro-4-sulfamoylbenzyl)-3-(3-(oxetan-3-ylethynyl)phenyl)-1H-pyrazol-1-yl)thiazole-4-carboxylic acid] | < 100 | –
10 | < 1 | – | – | – | – | 1 to 10 | CC1(C#Cc2cccc(-c3nn(-c4nc(C(=O)O)cs4)c(CC4CC4)c3Cc3ccc(S(N)(=O)=O)c(F)c3)c2)COC1 [Example 8, 2-(5-(cyclopropylmethyl)-4-(3-fluoro-4-sulfamoylbenzyl)-3-(3-((3-methyloxetan-3-yl)ethynyl)phenyl)-1H-pyrazol-1-yl)thiazole-4-carboxylic acid] | < 100 | –
11 | < 1 | +++ (5 μM≥+++>1 μM) | ++ (1 μM≥++>0.25 μM) | + (0.25 μM≥+>0 μM) | + (0.25 μM≥+>0 μM) | 1 to 10 | NS(=O)(=O)c1ccc(Cc2c(-c3cccc(C#CC4(O)COC4)c3)nn(-c3nc(C(=O)O)cs3)c2CC2CC2)cc1F [Example 9, 2-(5-(cyclopropylmethyl)-4-(3-fluoro-4-sulfamoylbenzyl)-3-(3-((3-hydroxyoxetan-3-yl)ethynyl)phenyl)-1H-pyrazol-1-yl)thiazole-4-carboxylic acid] | < 100 | –

From US20250205203A1, “SUBSTITUTED PYRAZOLYL COMPOUNDS AND METHODS OF USE THEREOF” (Chinook Therapeutics Canada, Inc., priority 2020, published 2025)
